# Results: PubChem BioAssay (NCI)
#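 GI50 = concentration required for 50% inhibition of growth. The concentration for full growth arrest is given as TGI.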
# Key:
# Experiment in all cases: DTP human tumour cell line panel, 384-well format
# OVCAR-4 ovarian = tested on: OVCAR-4 ovarian
# TK-10 renal = tested on: TK-10 renal
# MDA-MB-468 breast = tested on: MDA-MB-468 breast
# HCT-15 colon = tested on: HCT-15 colon
# CAKI-1 renal = tested on: CAKI-1 renal
# SNB-75 CNS = tested on: SNB-75 CNS
# OVCAR-8 ovarian = tested on: OVCAR-8 ovarian
# BT-549 breast = tested on: BT-549 breast
# NCI-H322M lung = tested on: NCI-H322M lung
# HCC-2998 colon = tested on: HCC-2998 colon
# MDA-MB-231 breast = tested on: MDA-MB-231 breast
# PC-3 prostate = tested on: PC-3 prostate
# NCI-H23 lung = tested on: NCI-H23 lung
# A498 renal = tested on: A498 renal
# IGROV1 ovarian = tested on: IGROV1 ovarian
# DU-145 prostate = tested on: DU-145 prostate
# SK-OV-3 ovarian = tested on: SK-OV-3 ovarian
# SF-539 CNS = tested on: SF-539 CNS
# MALME-3M melanoma = tested on: MALME-3M melanoma
# NCI/ADR-RES ovarian = tested on: NCI/ADR-RES ovarian
# HOP-62 NSCLC = tested on: HOP-62 NSCLC
# HCT-116 colon = tested on: HCT-116 colon
# UACC-62 melanoma = tested on: UACC-62 melanoma
# SN12C renal = tested on: SN12C renal
# NCI-H226 lung = tested on: NCI-H226 lung
# SW-620 colon = tested on: SW-620 colon
# MOLT-4 leukemia = tested on: MOLT-4 leukemia
# SNB-19 CNS = tested on: SNB-19 CNS
# EKVX NSCLC = tested on: EKVX NSCLC
# COLO 205 colon = tested on: COLO 205 colon
# RXF 393 renal = tested on: RXF 393 renal
# SR leukemia = tested on: SR leukemia
# MCF7 breast = tested on: MCF7 breast
# SF-295 CNS = tested on: SF-295 CNS
# LOX IMVI melanoma = tested on: LOX IMVI melanoma
# ACHN renal = tested on: ACHN renal
# OVCAR-3 ovarian = tested on: OVCAR-3 ovarian
# K-562 leukemia = tested on: K-562 leukemia
# CCRF-CEM leukemia = tested on: CCRF-CEM leukemia
# A549 NSCLC = tested on: A549 NSCLC
# SF-268 CNS = tested on: SF-268 CNS
# NCI-H460 NSCLC = tested on: NCI-H460 NSCLC
# RPMI-8226 leukemia = tested on: RPMI-8226 leukemia
# U251 glioblastoma = tested on: U251 glioblastoma
# HT29 colon = tested on: HT29 colon
# UO-31 renal = tested on: UO-31 renal
# M14 melanoma = tested on: M14 melanoma
# HS 578T breast = tested on: HS 578T breast
# NCI-H522 lung = tested on: NCI-H522 lung
# UACC-257 melanoma = tested on: UACC-257 melanoma
# HOP-92 NSCLC = tested on: HOP-92 NSCLC
# KM12 colon = tested on: KM12 colon
# 786-0 renal = tested on: 786-0 renal
# T-47D breast = tested on: T-47D breast
# HL-60(TB) leukemia = tested on: HL-60(TB) leukemia
# SK-MEL-5 melanoma = tested on: SK-MEL-5 melanoma
smiles,measurement,setting,value
Cn1nccc1Nc1nccc(-c2ccn([C@H](CO)c3ccc(Cl)c(F)c3)c(=O)c2)n1,GI50,OVCAR-4 ovarian,> 100 µM
same,TGI,OVCAR-4 ovarian,> 100 µM
same,GI50,TK-10 renal,21.2 µM
same,TGI,TK-10 renal,51.7 µM
same,GI50,MDA-MB-468 breast,23.7 µM
same,TGI,MDA-MB-468 breast,48.5 µM
same,GI50,HCT-15 colon,28.6 µM
same,TGI,HCT-15 colon,> 100 µM
same,GI50,CAKI-1 renal,15.5 µM
same,TGI,CAKI-1 renal,> 100 µM
same,GI50,SNB-75 CNS,22.6 µM
same,TGI,SNB-75 CNS,45.3 µM
same,GI50,OVCAR-8 ovarian,3.44 µM
same,TGI,OVCAR-8 ovarian,10.7 µM
same,GI50,BT-549 breast,15.1 µM
same,TGI,BT-549 breast,34.6 µM
same,GI50,NCI-H322M lung,15.6 µM
same,TGI,NCI-H322M lung,> 100 µM
same,GI50,HCC-2998 colon,0.565 µM
same,TGI,HCC-2998 colon,12.1 µM
same,GI50,MDA-MB-231 breast,21.3 µM
same,TGI,MDA-MB-231 breast,> 100 µM
same,GI50,PC-3 prostate,29.8 µM
same,TGI,PC-3 prostate,84.3 µM
same,GI50,NCI-H23 lung,0.899 µM
same,TGI,NCI-H23 lung,24 µM
same,GI50,A498 renal,18.1 µM
same,TGI,A498 renal,33.9 µM
same,GI50,IGROV1 ovarian,14 µM
same,TGI,IGROV1 ovarian,39.5 µM
same,GI50,DU-145 prostate,18.3 µM
same,TGI,DU-145 prostate,38.1 µM
same,GI50,SK-OV-3 ovarian,15.9 µM
same,TGI,SK-OV-3 ovarian,33.3 µM
same,GI50,SF-539 CNS,1.76 µM
same,TGI,SF-539 CNS,3.55 µM
same,GI50,MALME-3M melanoma,0.0289 µM
same,TGI,MALME-3M melanoma,0.104 µM
same,GI50,NCI/ADR-RES ovarian,78.1 µM
same,TGI,NCI/ADR-RES ovarian,> 100 µM
same,GI50,HOP-62 NSCLC,19.5 µM
same,TGI,HOP-62 NSCLC,47.2 µM
same,GI50,HCT-116 colon,1.78 µM
same,TGI,HCT-116 colon,11.8 µM
same,GI50,UACC-62 melanoma,0.0678 µM
same,TGI,UACC-62 melanoma,14.8 µM
same,GI50,SN12C renal,1.67 µM
same,TGI,SN12C renal,4.67 µM
same,GI50,NCI-H226 lung,26.4 µM
same,TGI,NCI-H226 lung,64.8 µM
same,GI50,SW-620 colon,1.65 µM
same,TGI,SW-620 colon,14.6 µM
same,GI50,MOLT-4 leukemia,11.6 µM
same,TGI,MOLT-4 leukemia,24 µM
same,GI50,SNB-19 CNS,16.6 µM
same,TGI,SNB-19 CNS,52 µM
same,GI50,EKVX NSCLC,76.5 µM
same,TGI,EKVX NSCLC,> 100 µM
same,GI50,COLO 205 colon,0.102 µM
same,TGI,COLO 205 colon,12.9 µM
same,GI50,RXF 393 renal,21.2 µM
same,TGI,RXF 393 renal,49 µM
same,GI50,SR leukemia,47.8 µM
same,TGI,SR leukemia,85.2 µM
same,GI50,MCF7 breast,37.4 µM
same,TGI,MCF7 breast,> 100 µM
same,GI50,SF-295 CNS,54 µM
same,TGI,SF-295 CNS,> 100 µM
same,GI50,LOX IMVI melanoma,1.08 µM
same,TGI,LOX IMVI melanoma,11.7 µM
same,GI50,ACHN renal,45 µM
same,TGI,ACHN renal,> 100 µM
same,GI50,OVCAR-3 ovarian,18.5 µM
same,TGI,OVCAR-3 ovarian,54.3 µM
same,GI50,K-562 leukemia,6.93 µM
same,TGI,K-562 leukemia,21.7 µM
same,GI50,CCRF-CEM leukemia,4.29 µM
same,TGI,CCRF-CEM leukemia,15 µM
same,GI50,A549 NSCLC,25.3 µM
same,TGI,A549 NSCLC,> 100 µM
same,GI50,SF-268 CNS,38.1 µM
same,TGI,SF-268 CNS,> 100 µM
same,GI50,NCI-H460 NSCLC,20.4 µM
same,TGI,NCI-H460 NSCLC,45.1 µM
same,GI50,RPMI-8226 leukemia,16.5 µM
same,TGI,RPMI-8226 leukemia,31 µM
same,GI50,U251 glioblastoma,7.42 µM
same,TGI,U251 glioblastoma,20.9 µM
same,GI50,HT29 colon,0.443 µM
same,TGI,HT29 colon,20.7 µM
same,GI50,UO-31 renal,30 µM
same,TGI,UO-31 renal,> 100 µM
same,GI50,M14 melanoma,0.0794 µM
same,TGI,M14 melanoma,10.3 µM
same,GI50,HS 578T breast,18.8 µM
same,TGI,HS 578T breast,34.1 µM
same,GI50,NCI-H522 lung,2.66 µM
same,TGI,NCI-H522 lung,9.45 µM
same,GI50,UACC-257 melanoma,0.209 µM
same,TGI,UACC-257 melanoma,> 100 µM
same,GI50,HOP-92 NSCLC,14.3 µM
same,TGI,HOP-92 NSCLC,28.2 µM
same,GI50,KM12 colon,18.6 µM
same,TGI,KM12 colon,> 100 µM
same,GI50,786-0 renal,19.9 µM
same,TGI,786-0 renal,58.7 µM
same,GI50,T-47D breast,11.1 µM
same,TGI,T-47D breast,54.5 µM
same,GI50,HL-60(TB) leukemia,0.11 µM
same,TGI,HL-60(TB) leukemia,13.1 µM
same,GI50,SK-MEL-5 melanoma,0.409 µM
same,TGI,SK-MEL-5 melanoma,22.1 µM
